Our source for the Activity and T/C values is ChEMBL document CHEMBL3244338, “Antineoplastic agents. Structure-activity relationship study of bis(substituted aminoalkylamino)anthraquinones” (J Med Chem, 1978).

Active and inactive are the calls of the source. The rule behind the calls is not given here.

The test system of data set [1] is P388. The data set can be described thus: Antitumor activity against mouse P388 cells allografted in BDF1 mouse assessed as mouse survival at 8 mg/kg administered 24 hrs post challenge relative to control. Type of data set: functional, organism-based. Also noted: dose 8 mg/kg.
Data set [2] deals with P388. The data set can be described thus: Antitumor activity against mouse P388 cells allografted in BDF1 mouse assessed as increase in survival time at 4 mg/kg administered 24 hrs post challenge relative to control. Type of data set: functional.
In data set [3] the test system is P388. Briefly: Antitumor activity against mouse P388 cells allografted in BDF1 mouse assessed as increase in survival time at 8 mg/kg administered 24 hrs post challenge relative to control. It counts as functional.
Data set [4] concerns Mus musculus. Briefly: Toxicity in mouse P388 cells allografted BDF1 mouse assessed as body weight difference at 4 mg/kg administered 24 hrs post challenge relative to control. It counts as organism-based. Also noted: dose 4 mg/kg. To be noted: in vivo.
For data set [5], the system named is P388. Briefly: Antitumor activity against mouse P388 cells allografted in BDF1 mouse assessed as mouse survival at 4 mg/kg administered 24 hrs post challenge relative to control. It counts as functional, organism-based. Also noted: dose 4 mg/kg.
In data set [6] the test system is P388. Briefly: Antitumor activity against mouse P388 cells allografted in BDF1 mouse assessed as mouse survival at 16 mg/kg administered 24 hrs post challenge relative to control. It counts as functional, organism-based. Also on record: dose 16 mg/kg.
Data set [7] relates to P388. The data set can be described thus: Antitumor activity against mouse P388 cells allografted in BDF1 mouse assessed as mouse survival at 32 mg/kg administered 24 hrs post challenge relative to control. Type of data set: functional, organism-based. Also noted: dose 32 mg/kg.
The subject of data set [8] is P388. The data set can be described thus: Antitumor activity against mouse P388 cells allografted in BDF1 mouse assessed as increase in survival time at 32 mg/kg administered 24 hrs post challenge relative to control. It counts as functional.
In data set [9] the test system is L1210. The data set can be described thus: Antitumor activity against mouse L1210 cells allografted in BDF1 mouse assessed as increase in survival time at 6.25 mg/kg administered 24 hrs post challenge relative to control. It counts as functional.
Data set [10] concerns Mus musculus. The data set can be described thus: Toxicity in mouse P388 cells allografted BDF1 mouse assessed as body weight difference at 8 mg/kg administered 24 hrs post challenge relative to control. Type of data set: organism-based. Also noted: dose 8 mg/kg. To be noted: in vivo.
For data set [11], the system named is L1210. The data set can be described thus: Antitumor activity against mouse L1210 cells allografted in BDF1 mouse assessed as increase in survival time at 12.5 mg/kg administered 24 hrs post challenge relative to control. It counts as functional.
Data set [12] relates to P388. The data set can be described thus: Antitumor activity against mouse P388 cells allografted in BDF1 mouse assessed as increase in survival time at 16 mg/kg administered 24 hrs post challenge relative to control. It counts as functional.
In data set [13] the test system is L1210. The data set can be described thus: Antitumor activity against mouse L1210 cells allografted in BDF1 mouse assessed as increase in survival time at 25 mg/kg administered 24 hrs post challenge relative to control. It counts as functional.
Data set [14] deals with Mus musculus. Briefly: Toxicity in mouse P388 cells allografted BDF1 mouse assessed as body weight difference at 32 mg/kg administered 24 hrs post challenge relative to control. Type of data set: organism-based. Also noted: dose 32 mg/kg. The settings on record: in vivo.
The test system of data set [15] is Mus musculus. The data set can be described thus: Toxicity in mouse P388 cells allografted BDF1 mouse assessed as body weight difference at 16 mg/kg administered 24 hrs post challenge relative to control. Also noted: dose 16 mg/kg. It counts as organism-based. To be noted: in vivo.
The test system of data set [16] is P388. Briefly: Antitumor activity against mouse P388 cells allografted in BDF1 mouse assessed as increase in survival time at 100 mg/kg administered 24 hrs post challenge relative to control. Type of data set: functional.
For data set [17], the system named is Mus musculus. Briefly: Toxicity in mouse P388 cells allografted BDF1 mouse assessed as body weight difference at 50 mg/kg administered 24 hrs post challenge relative to control. Type of data set: organism-based. Also on record: dose 50 mg/kg. The settings on record: in vivo.
The test system of data set [18] is Mus musculus. The data set can be described thus: Toxicity in mouse P388 cells allografted BDF1 mouse assessed as body weight difference at 12.5 mg/kg administered 24 hrs post challenge relative to control. Type of data set: organism-based. Also on record: dose 12.5 mg/kg. The settings on record: in vivo.
Data set [19] concerns Mus musculus. Briefly: Toxicity in mouse P388 cells allografted BDF1 mouse assessed as body weight difference at 25 mg/kg administered 24 hrs post challenge relative to control. It counts as organism-based. Also on record: dose 25 mg/kg. The settings on record: in vivo.
The subject of data set [20] is P388. The data set can be described thus: Antitumor activity against mouse P388 cells allografted in BDF1 mouse assessed as increase in survival time at 6.25 mg/kg administered 24 hrs post challenge relative to control. Type of data set: functional.
The subject of data set [21] is P388. The data set can be described thus: Antitumor activity against mouse P388 cells allografted in BDF1 mouse assessed as increase in survival time at 25 mg/kg administered 24 hrs post challenge relative to control. Type of data set: functional.
Data set [22] concerns P388. Briefly: Antitumor activity against mouse P388 cells allografted in BDF1 mouse assessed as increase in survival time at 12.5 mg/kg administered 24 hrs post challenge relative to control. It counts as functional.
Data set [23] deals with P388. The data set can be described thus: Antitumor activity against mouse P388 cells allografted in BDF1 mouse assessed as mouse survival at 50 mg/kg administered 24 hrs post challenge relative to control. It counts as functional, organism-based. Also on record: dose 50 mg/kg.
Data set [24] deals with P388. Briefly: Antitumor activity against mouse P388 cells allografted in BDF1 mouse assessed as mouse survival at 6.25 mg/kg administered 24 hrs post challenge relative to control. It counts as functional, organism-based. Also on record: dose 6.25 mg/kg.
Data set [25] relates to Mus musculus. The data set can be described thus: Toxicity in mouse P388 cells allografted BDF1 mouse assessed as body weight difference at 6.25 mg/kg administered 24 hrs post challenge relative to control. To be noted: in vivo. Type of data set: organism-based. Also noted: dose 6.25 mg/kg.
In data set [26] the test system is Mus musculus. The data set can be described thus: Toxicity in mouse P388 cells allografted BDF1 mouse assessed as body weight difference at 100 mg/kg administered 24 hrs post challenge relative to control. It counts as organism-based. To be noted: in vivo. Also noted: dose 100 mg/kg.
The subject of data set [27] is P388. Briefly: Antitumor activity against mouse P388 cells allografted in BDF1 mouse assessed as mouse survival at 12.5 mg/kg administered 24 hrs post challenge relative to control. It counts as functional, organism-based. Also noted: dose 12.5 mg/kg.
Data set [28] relates to P388. Briefly: Antitumor activity against mouse P388 cells allografted in BDF1 mouse assessed as increase in survival time at 50 mg/kg administered 24 hrs post challenge relative to control. Type of data set: functional.
The subject of data set [29] is P388. Briefly: Antitumor activity against mouse P388 cells allografted in BDF1 mouse assessed as mouse survival at 25 mg/kg administered 24 hrs post challenge relative to control. Type of data set: functional, organism-based. Also noted: dose 25 mg/kg.
The test system of data set [30] is P388. The data set can be described thus: Antitumor activity against mouse P388 cells allografted in BDF1 mouse assessed as mouse survival at 100 mg/kg administered 24 hrs post challenge relative to control. Type of data set: functional, organism-based. Also on record: dose 100 mg/kg.

`O=C1c2ccccc2C(=O)c2c(NCCNCCO)ccc(NCCNCCO)c21` [AMETANTRONE]: the outcome in data set [1], in data set [5], in data set [6] and in [7] was Active. For the same compound, the T/C (in general, the result in the treated group divided by that in the control group, in per cent) in data set [2] is 275%; in [3], 276%; in data set [8], 81%; in [9], 156%; in [11] it was 227%; in data set [12] it was 275%. For the same compound, in data set [13], the T/C is given as 272%. For the same compound, the Activity in data set [4] is listed as 0 g; in data set [10] it was -2 g; in [14], -5.9 g; in data set [15] it was -3.9 g.
Take `O=C1c2ccccc2C(=O)c2c(NCCCNCCO)ccc(NCCCNCCO)c21`: the T/C in [16] amounted to 98%; in [20], 101%; in data set [21], 130%; in [22] it was 117%; in [28], 133%. The Activity is on record as -2.1 g in data set [17]; -1.4 g in [18]; -2.1 g in data set [19]; 0.9 g in data set [25]; -2.6 g in data set [26]. Besides, the result in [23], in data set [24] and in data set [27] was Active.
For the compound `CNCCNc1ccc(NCCNC)c2c1C(=O)c1ccccc1C2=O`, the Activity in [18] is -1.9 g. Further, the T/C in data set [22] amounted to 200%. Further, the result in data set [27] was Active.
In the case of `O=C1c2ccccc2C(=O)c2c3c(cc(NCCNCCO)c21)N(CCO)CCN3`, the T/C worked out at 101% in data set [16], 155% in [21] and 163% in [28]. Further, the Activity in data set [17] was -3.5 g; in data set [19], -3.2 g; in data set [26], -3.8 g. Besides, in data set [29], the outcome was Active.
`O=C1c2ccccc2C(=O)c2c(NCCNCCNCCO)ccc(NCCNCCNCCO)c21`: the T/C in [16] was 120%; in data set [21], 110%; in data set [28], 112%. The Activity in data set [17] is given as -1.3 g; in [19], -1.6 g; in [26], -2.6 g. Moreover, the result in data set [29] and in data set [23] was Active.
In the case of `O=C1c2ccccc2C(=O)c2c(NCCCCCO)ccc(NCCCCCO)c21`, the T/C is 88% in data set [16], 88% in [21] and 78% in data set [28]. In addition, the Activity is recorded as -1.5 g in data set [17], -1.4 g in data set [19] and -4 g in data set [26]. The outcome in data set [29], in [30] and in [23] was Active.
